Source: patent US9492496B2, “Aminothiazoles and their uses” (Novartis AG, priority 2007, dated 2016)

Test system: prokaryotic transcription-translation (E. coli S30 extract)
Assay: In vitro assay for inhibition of prokaryotic transcription-translation (Promega E. coli S30 Extract System, pBESTluc luciferase readout)
Format: biochemical
Conditions: 2 uM compound, 2 h at 37° C., luciferase luminescence
Method: In vitro assay for inhibition of prokaryotic transcription-translation [as described in the following references: 1. Zubay, G. (1973) In vitro synthesis of protein in microbial systems. Annu. Rev. Genet. 7, 267.87. 2. Zubay, G. (1980) The isolation and properties of CAP, the catabolite gene activator. Meth. Enzymol. 65, 856.77]. Antibiotic and compound dilutions: stock solutions of compound to be assayed at 2 μM are 80 μM in 40% DMSO. Stock solutions of compounds to be assayed at 10 μM are 400 μM in 40% DMSO.
Assay setup and protocol for Promega E. coli S30 Extract System
The assay is performed as follows: pipet 3.5 μl of 286 ng/μl template DNA (pBESTluc™) into assay wells. Negative control wells receive sdH2O only. Transfer 0.5 μl of 40× compound stock solution to assay wells. Positive control wells (no compound) receive 0.5 μl 40% DMSO sdH2O. Pipet 16 μl of master mix into assay wells. Incubate plate for two hours at 37° C. Rapidly chill the assay plate on ice for five minutes to stop the reaction. Add an equal volume (20 μl) of room temperature Steady-Glo® Luciferase assay reagent to all assay wells. Incubate 20 minutes and read light emitted with luminometer. Results are reported as % inhibition a 2 μM or 10 μM.

Row | SMILES | % inh. @ 2 uM
1 | CNC(=O)C[C@@H]1NC(=O)c2csc(n2)-c2ccc(-c3nc(NC(=O)CC[C@H](CC(=O)O)C(=O)O)cs3)nc2-c2csc(n2)-c2csc(n2)[C@H]([C@@H](O)c2ccccc2)NC(=O)CNC(=O)c2nc(sc2COC)C(C(C)C)NC(=O)c2nc1sc2C (stereo partly shown) [Compound 1] | 2 uM = 65.4%
2 | CNC(=O)C[C@@H]1NC(=O)c2csc(n2)-c2ccc(-c3nc(NC(=O)CC[C@@H](CC(=O)O)C(=O)O)cs3)nc2-c2csc(n2)-c2csc(n2)[C@H]([C@@H](O)c2ccccc2)NC(=O)CNC(=O)c2nc(sc2COC)C(C(C)C)NC(=O)c2nc1sc2C (stereo partly shown) [Compound 2] | 2 uM = 72.8%
3 | CNC(=O)C[C@@H]1NC(=O)c2csc(n2)-c2ccc(-c3nc(N(CCCC(=O)O)C(=O)OCCCC(=O)O)cs3)nc2-c2csc(n2)-c2csc(n2)[C@H]([C@@H](O)c2ccccc2)NC(=O)CNC(=O)c2nc(sc2COC)C(C(C)C)NC(=O)c2nc1sc2C (stereo partly shown) [Compound 3] | 2 uM = 67.8%
4 | CNC(=O)C[C@@H]1NC(=O)c2csc(n2)-c2ccc(-c3nc(N(CCCC(=O)O)C(=O)O[C@H]4CC[C@H](C(=O)O)CC4)cs3)nc2-c2csc(n2)-c2csc(n2)[C@H]([C@@H](O)c2ccccc2)NC(=O)CNC(=O)c2nc(sc2COC)C(C(C)C)NC(=O)c2nc1sc2C (stereo partly shown) [Compound 4] | 2 uM = 85.3%
5 | CNC(=O)C[C@@H]1NC(=O)c2csc(n2)-c2ccc(-c3nc(N(CCCCCCC(=O)O)C(=O)O[C@H]4CC[C@H](C(=O)O)CC4)cs3)nc2-c2csc(n2)-c2csc(n2)[C@H]([C@@H](O)c2ccccc2)NC(=O)CNC(=O)c2nc(sc2COC)C(C(C)C)NC(=O)c2nc1sc2C (stereo partly shown) [Compound 5] | 2 uM = 78.5%
6 | CNC(=O)C[C@@H]1NC(=O)c2csc(n2)-c2ccc(-c3nc(N(CCCCC(=O)O)C(=O)O[C@H]4CC[C@H](C(=O)O)CC4)cs3)nc2-c2csc(n2)-c2csc(n2)[C@H]([C@@H](O)c2ccccc2)NC(=O)CNC(=O)c2nc(sc2COC)C(C(C)C)NC(=O)c2nc1sc2C (stereo partly shown) [Compound 6] | 2 uM = 86.8%
7 | CNC(=O)C[C@@H]1NC(=O)c2csc(n2)-c2ccc(-c3nc(N(CCCCCC(=O)O)C(=O)O[C@H]4CC[C@H](C(=O)O)CC4)cs3)nc2-c2csc(n2)-c2csc(n2)[C@H]([C@@H](O)c2ccccc2)NC(=O)CNC(=O)c2nc(sc2COC)C(C(C)C)NC(=O)c2nc1sc2C (stereo partly shown) [Compound 7] | 2 uM = 86.0%
8 | CNC(=O)C[C@@H]1NC(=O)c2csc(n2)-c2ccc(-c3nc(N(CCCC(=O)O)C(=O)CCCCC(=O)O)cs3)nc2-c2csc(n2)-c2csc(n2)[C@H]([C@@H](O)c2ccccc2)NC(=O)CNC(=O)c2nc(sc2COC)C(C(C)C)NC(=O)c2nc1sc2C (stereo partly shown) [Compound 8] | 2 uM = 59.7%
9 | CNC(=O)C[C@@H]1NC(=O)c2csc(n2)-c2ccc(-c3nc(N(CCCCC(=O)O)C(=O)O[C@H]4C[C@H](C(=O)O)C4)cs3)nc2-c2csc(n2)-c2csc(n2)[C@H]([C@@H](O)c2ccccc2)NC(=O)CNC(=O)c2nc(sc2COC)C(C(C)C)NC(=O)c2nc1sc2C (stereo partly shown) [Compound 9] | 2 uM = 67.1%
10 | CNC(=O)C[C@@H]1NC(=O)c2csc(n2)-c2ccc(-c3nc(N(CCCCC(=O)O)C(=O)[C@H]4CC[C@H]4C(=O)O)cs3)nc2-c2csc(n2)-c2csc(n2)[C@H]([C@@H](O)c2ccccc2)NC(=O)CNC(=O)c2nc(sc2COC)C(C(C)C)NC(=O)c2nc1sc2C (stereo partly shown) [Compound 10] | 2 uM = 2.0%
11 | CNC(=O)C[C@@H]1NC(=O)c2csc(n2)-c2ccc(-c3nc(NC(=O)N4C[C@H](CCC(=O)O)C[C@H](CCC(=O)O)C4)cs3)nc2-c2csc(n2)-c2csc(n2)[C@H]([C@@H](O)c2ccccc2)NC(=O)CNC(=O)c2nc(sc2COC)C(C(C)C)NC(=O)c2nc1sc2C (stereo partly shown) [Compound 11] | 2 uM = 92.3%
12 | CNC(=O)C[C@@H]1NC(=O)c2csc(n2)-c2ccc(-c3nc(N(CCCC(=O)O)C(=O)CCCCCC(=O)O)cs3)nc2-c2csc(n2)-c2csc(n2)[C@H]([C@@H](O)c2ccccc2)NC(=O)CNC(=O)c2nc(sc2COC)C(C(C)C)NC(=O)c2nc1sc2C (stereo partly shown) [Compound 12] | 2 uM = 82.4%
13 | CNC(=O)C[C@@H]1NC(=O)c2csc(n2)-c2ccc(-c3nc(N(CCCCC(=O)O)C(=O)OCc4ccc(C(=O)O)cn4)cs3)nc2-c2csc(n2)-c2csc(n2)[C@H]([C@@H](O)c2ccccc2)NC(=O)CNC(=O)c2nc(sc2COC)C(C(C)C)NC(=O)c2nc1sc2C (stereo partly shown) [Compound 13] | 2 uM = 74.9%
14 | CNC(=O)C[C@@H]1NC(=O)c2csc(n2)-c2ccc(-c3nc(N(CCCC(=O)O)C(=O)c4ccc(C(=O)O)cn4)cs3)nc2-c2csc(n2)-c2csc(n2)[C@H]([C@@H](O)c2ccccc2)NC(=O)CNC(=O)c2nc(sc2COC)C(C(C)C)NC(=O)c2nc1sc2C (stereo partly shown) [Compound 14] | 2 uM = 55.5%
15 | CNC(=O)C[C@@H]1NC(=O)c2csc(n2)-c2ccc(-c3nc(N(CCCC(=O)O)C(=O)C[C@H]4CC[C@H](C(=O)O)CC4)cs3)nc2-c2csc(n2)-c2csc(n2)[C@H]([C@@H](O)c2ccccc2)NC(=O)CNC(=O)c2nc(sc2COC)C(C(C)C)NC(=O)c2nc1sc2C (stereo partly shown) [Compound 15] | 2 uM = 64.5%
16 | CNC(=O)C[C@@H]1NC(=O)c2csc(n2)-c2ccc(-c3nc(N(CCCCC(=O)O)C(=O)[C@H]4CC[C@H](C(=O)O)CC4)cs3)nc2-c2csc(n2)-c2csc(n2)[C@H]([C@@H](O)c2ccccc2)NC(=O)CNC(=O)c2nc(sc2COC)C(C(C)C)NC(=O)c2nc1sc2C (stereo partly shown) [Compound 16] | 2 uM = 64.3%
17 | CNC(=O)C[C@@H]1NC(=O)c2csc(n2)-c2ccc(-c3nc(N(CCCCC(=O)O)C(=O)C[C@H]4CC[C@H](C(=O)O)CC4)cs3)nc2-c2csc(n2)-c2csc(n2)[C@H]([C@@H](O)c2ccccc2)NC(=O)CNC(=O)c2nc(sc2COC)C(C(C)C)NC(=O)c2nc1sc2C (stereo partly shown) [Compound 17] | 2 uM = 63.9%
18 | CNC(=O)C[C@@H]1NC(=O)c2csc(n2)-c2ccc(-c3nc(N(CCCCC(=O)O)C(=O)N[C@H]4CC[C@H](C(=O)O)CC4)cs3)nc2-c2csc(n2)-c2csc(n2)[C@H]([C@@H](O)c2ccccc2)NC(=O)CNC(=O)c2nc(sc2COC)C(C(C)C)NC(=O)c2nc1sc2C (stereo partly shown) [Compound 18] | 2 uM = 52.7%
19 | CNC(=O)C[C@@H]1NC(=O)c2csc(n2)-c2ccc(-c3nc(N(C/C=C/C(=O)O)C(=O)O[C@H]4CC[C@H](C(=O)O)CC4)cs3)nc2-c2csc(n2)-c2csc(n2)[C@H]([C@@H](O)c2ccccc2)NC(=O)CNC(=O)c2nc(sc2COC)C(C(C)C)NC(=O)c2nc1sc2C (stereo partly shown) [Compound 19] | 2 uM = 76.4%
20 | CNC(=O)C[C@@H]1NC(=O)c2csc(n2)-c2ccc(-c3nc(N(CC(CC(=O)O)OC)C(=O)O[C@H]4CC[C@H](C(=O)O)CC4)cs3)nc2-c2csc(n2)-c2csc(n2)[C@H]([C@@H](O)c2ccccc2)NC(=O)CNC(=O)c2nc(sc2COC)C(C(C)C)NC(=O)c2nc1sc2C (stereo partly shown) [Compound 20] | 2 uM = 80.6%
21 | CNC(=O)C[C@@H]1NC(=O)c2csc(n2)-c2ccc(-c3nc(N(CCCCC(=O)O)C(=O)N4CCC(C(=O)O)CC4)cs3)nc2-c2csc(n2)-c2csc(n2)[C@H]([C@@H](O)c2ccccc2)NC(=O)CNC(=O)c2nc(sc2COC)C(C(C)C)NC(=O)c2nc1sc2C (stereo partly shown) [Compound 21] | 2 uM = 37.4%
22 | CNC(=O)C[C@@H]1NC(=O)c2csc(n2)-c2ccc(-c3nc(NC(=O)N(CCCC(=O)O)CCCC(=O)O)cs3)nc2-c2csc(n2)-c2csc(n2)[C@H]([C@@H](O)c2ccccc2)NC(=O)CNC(=O)c2nc(sc2COC)C(C(C)C)NC(=O)c2nc1sc2C (stereo partly shown) [Compound 22] | 2 uM = 79.8%
